In publication PMC2730992 (Molecular and biochemical parasitology, 2009):

T1: Tb AdoMetDC/Tc Prozyme (Trypanosoma brucei, UniProt P50244)
T1 sequence (P50244 1-85): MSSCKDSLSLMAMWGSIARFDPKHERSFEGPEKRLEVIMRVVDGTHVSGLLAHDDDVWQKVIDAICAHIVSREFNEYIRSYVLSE
T1 sequence (P50244 86-370): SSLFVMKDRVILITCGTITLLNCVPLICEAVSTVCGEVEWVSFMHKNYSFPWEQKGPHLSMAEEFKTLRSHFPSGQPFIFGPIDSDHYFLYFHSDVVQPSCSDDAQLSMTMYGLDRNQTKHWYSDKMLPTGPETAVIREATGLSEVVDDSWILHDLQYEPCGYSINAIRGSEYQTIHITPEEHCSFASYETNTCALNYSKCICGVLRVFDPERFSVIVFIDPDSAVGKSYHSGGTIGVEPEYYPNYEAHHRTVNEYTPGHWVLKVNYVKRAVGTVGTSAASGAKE
T1 sequence (Q4DQQ6 1-326 partner): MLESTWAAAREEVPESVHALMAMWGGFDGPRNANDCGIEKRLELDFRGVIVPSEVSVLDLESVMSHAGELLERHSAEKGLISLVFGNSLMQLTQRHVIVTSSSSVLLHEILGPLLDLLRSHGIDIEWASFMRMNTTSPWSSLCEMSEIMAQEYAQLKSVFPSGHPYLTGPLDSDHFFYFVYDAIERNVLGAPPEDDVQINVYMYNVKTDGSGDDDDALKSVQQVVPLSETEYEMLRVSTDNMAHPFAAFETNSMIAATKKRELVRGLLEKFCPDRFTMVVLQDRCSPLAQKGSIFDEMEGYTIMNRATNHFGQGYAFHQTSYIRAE

T2: Tc AdoMetDC/Tb Prozyme (Trypanosoma cruzi, UniProt O76240)
T2 sequence (O76240 1-85): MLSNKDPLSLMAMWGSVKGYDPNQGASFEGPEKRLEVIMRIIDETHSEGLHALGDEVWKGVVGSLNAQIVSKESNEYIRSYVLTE
T2 sequence (O76240 86-370): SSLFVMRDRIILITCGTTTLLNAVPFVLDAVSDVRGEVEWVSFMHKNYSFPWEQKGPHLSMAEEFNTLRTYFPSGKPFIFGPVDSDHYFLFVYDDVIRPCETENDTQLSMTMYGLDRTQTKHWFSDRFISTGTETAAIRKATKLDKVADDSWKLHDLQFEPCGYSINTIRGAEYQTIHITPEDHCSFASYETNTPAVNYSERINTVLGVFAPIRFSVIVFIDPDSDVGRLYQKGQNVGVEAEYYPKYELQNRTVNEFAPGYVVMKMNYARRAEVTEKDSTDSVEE
T2 sequence (A5HNV6 1-325 partner): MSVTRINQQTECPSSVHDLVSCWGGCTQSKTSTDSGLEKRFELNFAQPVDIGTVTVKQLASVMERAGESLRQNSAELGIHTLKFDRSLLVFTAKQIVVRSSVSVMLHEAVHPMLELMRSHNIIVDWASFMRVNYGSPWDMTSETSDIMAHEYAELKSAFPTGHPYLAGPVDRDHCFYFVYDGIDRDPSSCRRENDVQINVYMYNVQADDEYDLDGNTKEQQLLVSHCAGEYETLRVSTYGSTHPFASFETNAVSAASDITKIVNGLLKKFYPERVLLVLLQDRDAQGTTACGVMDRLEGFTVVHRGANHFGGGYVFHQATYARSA

B1: Tc AdoMetDC/Tb Prozyme (Trypanosoma cruzi) (protein)
chain 1: T2 sequence (O76240 1-85)
chain 2: T2 sequence (O76240 86-370)

Assays:
Tb AdoMetDC/Tc Prozyme = target: T1, Tb AdoMetDC/Tc Prozyme; type: biochemical; details: 5 mM putrescine; allosteric activator; pH 8.0, 37 °C
Tc AdoMetDC/Tb Prozyme = target: T2, Tc AdoMetDC/Tb Prozyme; type: biochemical; details: 5 mM putrescine; allosteric activator; pH 8.0, 37 °C
purified protein = substrate: C[S+](CC[C@H](N)C(=O)O)C[C@H]1O[C@@H](n2cnc3c(N)ncnc32)[C@H](O)[C@@H]1O; test: purified protein; details: pH 8.0; 37.0 °C

Molecule	activation of AdoMet decarboxylation, 14CO2 trapping (Tb AdoMetDC/Tc Prozyme)	activation of AdoMet decarboxylation, 14CO2 trapping (Tc AdoMetDC/Tb Prozyme)	Km (purified protein)
NCCCCN [putrescine]	when putrescine was included, both cross-species heterodimers were further activated	when putrescine was included, both cross-species heterodimers were further activated	
B1			440 ± 14 µM
